{
  "source": "patent US7612067B2",
  "about": "“Imidazopyridazine compounds” (Eli Lilly and Company, priority 2005, dated 2009)",
  "key": {"[1]": {"conditions": "single intravenous dose, comparison CRF antagonists with literature references; cited from earlier work"}, "[2]": {"experiment": "Volume of distribution after single intravenous dose", "format": "in vivo, rat", "conditions": "male Sprague Dawley rats, single 3 mg/kg intravenous dose", "method": "The volume of distribution (Vdist) relates the amount of the drug in the body to the concentration of the drug in the blood or plasma. The volume of distribution refers to the fluid volume that would be required to contain the total amount of the drug in the body at the same concentration as in the blood or plasma: Vdist=amount of drug in the body/concentration of drug in blood or plasma (Goodman and Gillman's). For a 10 mg dose and a plasma concentration of 10 mg/L, the volume of distribution would be 1 liter. The volume of distribution reflects the extent to which the drug is present in the extravascular tissue. A large volume of distribution reflects the tendency of a compound to bind to the tissue components compared with plasma protein binding. In a clinical setting, Vdist can be used to determine a loading dose achieve a steady state concentration.\nTo test for volume of distribution, Male Sprague Dawley rats (N=3) are administered a single 3 mg/kg intravenous dose of compound. Multiple plasma samples are collected at time points from 0.08 to 24 hours post-dose. The plasma samples are analyzed by LC/MS/MS to determine the plasma concentrations. Plasma pharmacokinetic calculations are performed to determine the pharmacokinetic parameters including Vdist and plasma clearance (Clp)."}, "human CRF1": {"biological_target": "T1, human CRF1 (Homo sapiens, UniProt P34998)", "T1 construct": "expressed in transfected cells; membranes used", "T1 sequence (P34998 24-415)": "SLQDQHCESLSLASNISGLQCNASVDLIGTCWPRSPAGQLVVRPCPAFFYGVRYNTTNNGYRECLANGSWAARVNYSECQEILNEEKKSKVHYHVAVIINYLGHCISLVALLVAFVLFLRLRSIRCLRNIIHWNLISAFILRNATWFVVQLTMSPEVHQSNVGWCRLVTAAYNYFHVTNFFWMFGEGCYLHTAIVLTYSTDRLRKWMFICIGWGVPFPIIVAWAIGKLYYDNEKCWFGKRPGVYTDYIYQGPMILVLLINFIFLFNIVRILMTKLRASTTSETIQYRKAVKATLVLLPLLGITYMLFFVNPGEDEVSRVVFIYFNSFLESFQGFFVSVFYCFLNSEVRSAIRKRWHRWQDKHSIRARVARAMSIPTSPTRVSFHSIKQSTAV", "experiment": "CRF1 filter binding assay", "conditions": "HEK-hCRF1 membranes, 125I-sauvagine; read-out: Ki (inhibition constant)", "method": "The limitations of plasmid-based human CRF1 expression, in terms of generating a recombinant cell line with sufficient receptor density to develop a binding assay, are overcome by using a Phoenix retroviral expression system licensed from Stanford. The stable HEK-hCRF1 cell line is used to prepare membranes and binding reactions (200 μl) are set up as follows: 50 μl of ^125I-sauvagine (0.2 nM final), 50 μl compound and 100 μl CRF1 membrane (25 μg/reaction). The reactions are incubated at room temperature for 2 hours and then terminated by filtration through pre-treated FB Millipore glass fiber filter plates (96 well). The plates are wash twice with ice-cold assay buffer (50 mM tris, 12.5 mM NaCl, 1 mM EDTA, 10 mM MgCl2, 0.05% BSA, pH 7.2), air dried over night and counted with 100 μl Microscint 40 in a MicroBeta counter. Non-specific binding (NSB) is determined in the presence of 0.5 μM non-labeled sauvagine. Triplicate determinations are typically run and the median data points plotted by Graph Pad Prism."}, "human CRF2": {"biological_target": "T2, human CRF2 (Homo sapiens, UniProt Q13324)", "T2 construct": "expressed in transfected cells; membranes used", "T2 sequence (Q13324 1-411)": "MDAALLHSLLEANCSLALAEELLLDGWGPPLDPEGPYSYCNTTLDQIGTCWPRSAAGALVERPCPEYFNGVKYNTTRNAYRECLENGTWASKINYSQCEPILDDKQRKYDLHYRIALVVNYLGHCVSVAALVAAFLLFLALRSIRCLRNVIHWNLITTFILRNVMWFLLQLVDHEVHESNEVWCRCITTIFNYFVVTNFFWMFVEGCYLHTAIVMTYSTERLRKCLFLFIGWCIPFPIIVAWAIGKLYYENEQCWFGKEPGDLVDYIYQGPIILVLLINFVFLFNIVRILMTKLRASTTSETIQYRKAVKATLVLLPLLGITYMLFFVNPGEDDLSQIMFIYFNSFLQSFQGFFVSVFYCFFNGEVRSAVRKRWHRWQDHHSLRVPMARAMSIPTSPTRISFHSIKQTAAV", "experiment": "CRF2 filter binding assay", "conditions": "50 μM compound, HEK-hCRF2 membranes, 125I-sauvagine", "method": "The limitations of plasmid-based human CRF2 expression, in terms of generating a recombinant cell line with sufficient receptor density to develop a binding assay, are overcome by using a Phoenix retroviral expression system licensed from Stanford. The stable HEK-hCRF2 cell line is used to prepare membranes and binding reactions (200 μl) are set up as follows: 50 ul of ^125I-sauvagine (0.2 nM final concentration), 50 μl compound and 100 μl CRF2 membrane (25 μg/reaction). The reactions are incubated at room temperature for 2 hours and then terminated by filtration through pre-treated FB Millipore glass fiber filter plates (96 well). The plates are washed twice with ice-cold assay buffer (50 mM tris, 12.5 mM NaCl, 1 mM EDTA, 10 mM MgCl2, 0.05% BSA, pH 7.2), air dried over night and counted with 100 μl Microscint 40 in a MicroBeta counter. Non-specific binding (NSB) is determined in the presence of 0.5 μM non-labeled sauvagine. Alternatively, compounds are evaluated using a Scintillation Proximity assay. […] Bound radioactivity is assessed using a Wallac Trilux scintillation counter. Binding is assessed typically using triplicate determinations and the median data points plotted by Graph Pad Prism. […]"}, "[3]": {"biological_target": "T3, binding of 125I-sauvagine to the cerebellum (Rattus norvegicus, UniProt P35353)", "T3 construct": "from tissue; host or cells: rat cerebellum", "T3 sequence (P35353 24-415)": "T1 sequence (P34998 24-415) with H6R, S9N, A13T, I16V, M153V, G163A, I209V, Y229H, H356R", "experiment": "In vivo potency assessment using ex vivo binding", "conditions": "oral route, ex vivo 125I-sauvagine binding to cerebellum", "method": "To assess in vivo potency, a compound of the present invention is evaluated using ex vivo binding. Using the procedures as provided in D. R. Gehlert et al., EJP 509: 145-153 (2005), a compound is administered to a rat via the oral route."}},
  "note": "Substitutions are numbered along the chain they refer to. Where a name gives a salt, the structure may show the parent alone. Read-outs that look alike come from different tables or passages of the source.",
  "data": [
    {"smiles": "CCCCN(CC)c1nc(C)nc2c1c(C)cn2-c1c(C)cc(C)cc1C", "note": "[CP154526]", "values": [
      {"measurement": "rat Vdist", "setting": "[1]", "result": 114, "unit": "L/kg"}
    ]},
    {"smiles": "CCC(CC)c1cc(C)nn2c(-c3sc(-c4ccc(F)cc4)cc3C)c(C)nc12", "note": "[Example 39, 8-(1-ethyl-propyl)-3-[5-(4-fluoro-phenyl)-3-methyl-thiophen-2-yl]-2,6-dimethyl-imidazo[1,2-b]pyridazine]", "values": [
      {"measurement": "rat Vdist", "setting": "[2]", "result": 17, "unit": "L/kg"}
    ]},
    {"smiles": "CCC(CC)c1cc(C)nn2c(-c3sc(-c4ncnn4C)nc3Br)c(C)nc12", "note": "[Example 48, 3-[4-bromo-2-(2-methyl-2H-[1,2,4]triazol-3-yl)-thiazol-5-yl]-8-(1-ethyl-propyl)-2,6-dimethyl-imidazo[1,2-b]pyridazine]", "values": [
      {"measurement": "rat Vdist", "setting": "[2]", "result": 9, "unit": "L/kg"}
    ]},
    {"smiles": "CCC(CC)c1cc(C)nn2c(-c3sc(-c4ncnn4C)cc3Cl)c(C)nc12", "note": "[Example 88, 3-[3-chloro-5-(2-methyl-2H-[1,2,4]triazol-3-yl)-thiophen-2-yl]-8-(1-ethyl-propyl)-2,6-dimethyl-imidazo[1,2-b]pyridazine]", "values": [
      {"measurement": "rat Vdist", "setting": "[2]", "result": 44, "unit": "L/kg"}
    ]},
    {"smiles": "CCC(CC)c1cc(C)nn2c(-c3sc(N4CCOCC4)nc3Cl)c(C)nc12", "note": "[Example 102, N-{4-chloro-5-[8-(1-ethyl-propyl)-2,6-dimethyl-imidazo[1,2-b]pyridazin-3-yl]-thiazol-2-yl}-morpholine, hydrochloride salt]", "values": [
      {"measurement": "Ki", "setting": "human CRF1", "result": "4.92 ± 0.57", "unit": "nM"},
      {"measurement": "inhibition at 50 µM", "setting": "human CRF2; read-out: percent inhibition at 50 μM", "result": "9 ± 2.6", "unit": "%"}
    ]},
    {"smiles": "CCC(CC)c1cc(C)nn2c(-c3sc(N4CCOCC4)nc3Cl)c(C)nc12", "note": "[Example 199, N-{4-chloro-5-[8-(1-ethyl-propyl)-2,6-dimethyl-imidazo[1,2-b]pyridazin-3-yl]-thiazol-2-yl}-morpholine]", "values": [
      {"measurement": "Ki", "setting": "human CRF1", "result": "9.98 ± 0.72", "unit": "nM"},
      {"measurement": "ED50", "setting": "[3]", "result": 1.3, "unit": "mg/kg"},
      {"measurement": "rat Vdist", "setting": "[2]", "result": 2, "unit": "L/kg"},
      {"measurement": "percent inhibition at 50 μM", "setting": "human CRF2", "result": "16.9±1.9", "unit": "%"}
    ]},
    {"smiles": "CCCN(CCC)c1cc(C)nc2c(-c3cnc(N(C)C)cc3C)c(C)nn12", "note": "[NBI30775]", "values": [
      {"measurement": "rat Vdist", "setting": "[1]", "result": 76, "unit": "L/kg"}
    ]}
  ]
}
